Source: patent US6150385A, “1,3,4-thiadiazoles useful for the treatment of CMV infections” (Pharmacia & Upjohn Company, priority 1999, dated 2000)

molecular target: T1, HCMV polymerase (Human cytomegalovirus, UniProt P08546); assay: HCMV polymerase assay (scintillation proximity assay); assay type: biochemical; details: percentage of inhibition at 25 μM concentration in CMV polymerase assay
T1 construct: made in house; host or cells: SF-9 insect cells infected with recombinant baculovirus
Procedure: The compounds of the present invention are tested in an polymerase assay to show activity described below, which is indicative of a compound's activity and thus of its use as an anti-viral agent.
The HCMV polymerase assay is performed using a scintillation proximity assay (SPA) as described in several references, such as N. D. Cook, et al., Pharmaceutical Manufacturing International, pages 49-53 (1992); K. Takeuchi, Laboratory Practice, September issue (1992); U.S. Pat. No. 4,568,649 (1986); which are incorporated by reference herein. Reactions are performed in 96-well plates. The assay is conducted in 100 μl volume with 5.4 mM HEPES (pH 7.5), 11.7 mM KCl, 4.5 mM MgCl2, 0.36 mg/ml BSA, and 90 nM ^3 H-dTTP. Assays are run with and without CHAPS, (3-[(3-Cholamidopropyl)-dimethylammonio]-1-propanesulfonate) at a final concentration of 2 mM. HCMV is diluted in enzyme dilution buffer containing 50% glycerol, 250 mM NaCl, 10 mM HEPES (pH 7.5), 100 μg/ml BSA, and 0.01% sodium azide. The HCMV polymerase, which is expressed in recombinant baculovirus-infected SF-9 cells and purified according to literature procedures, is added at 10% (or 10 μl) of the final reaction volume, i.e., 100 μl. Compounds are diluted in 50% DMSO and 10 μl are added to each well. Control wells contain an equivalent concentration of DMSO. Unless noted otherwise, reactions are initiated via the addition of 6 nM biotinylated poly(dA)-oligo(dT) template/primer to reaction mixtures containing the enzyme, substrate, and compounds of interest. Plates are incubated in a 25° C. or 37° C. H2 O bath and terminated via the addition of 40 μl/reaction of 0.5 M EDTA (pH 8) per well. Reactions are terminated within the time-frame during which substrate incorporation is linear and varied depending upon the enzyme and conditions used, i.e., 30 min. for HCMV polymerase. Ten μl of streptavidin-SPA beads (20 mg/ml in PBS/10% glycerol) are added following termination of the reaction. Plates are incubated 10 min. at 37° C., then equilibrated to room temperature, and counted on a Packard Topcount.
In TABLE 1, "MS" refers to mass spectral data, "% inhib" refers to percentage of inhibition at 25 μM concentration in CMV polymerase assay.

T1 sequence (P08546 whole entry): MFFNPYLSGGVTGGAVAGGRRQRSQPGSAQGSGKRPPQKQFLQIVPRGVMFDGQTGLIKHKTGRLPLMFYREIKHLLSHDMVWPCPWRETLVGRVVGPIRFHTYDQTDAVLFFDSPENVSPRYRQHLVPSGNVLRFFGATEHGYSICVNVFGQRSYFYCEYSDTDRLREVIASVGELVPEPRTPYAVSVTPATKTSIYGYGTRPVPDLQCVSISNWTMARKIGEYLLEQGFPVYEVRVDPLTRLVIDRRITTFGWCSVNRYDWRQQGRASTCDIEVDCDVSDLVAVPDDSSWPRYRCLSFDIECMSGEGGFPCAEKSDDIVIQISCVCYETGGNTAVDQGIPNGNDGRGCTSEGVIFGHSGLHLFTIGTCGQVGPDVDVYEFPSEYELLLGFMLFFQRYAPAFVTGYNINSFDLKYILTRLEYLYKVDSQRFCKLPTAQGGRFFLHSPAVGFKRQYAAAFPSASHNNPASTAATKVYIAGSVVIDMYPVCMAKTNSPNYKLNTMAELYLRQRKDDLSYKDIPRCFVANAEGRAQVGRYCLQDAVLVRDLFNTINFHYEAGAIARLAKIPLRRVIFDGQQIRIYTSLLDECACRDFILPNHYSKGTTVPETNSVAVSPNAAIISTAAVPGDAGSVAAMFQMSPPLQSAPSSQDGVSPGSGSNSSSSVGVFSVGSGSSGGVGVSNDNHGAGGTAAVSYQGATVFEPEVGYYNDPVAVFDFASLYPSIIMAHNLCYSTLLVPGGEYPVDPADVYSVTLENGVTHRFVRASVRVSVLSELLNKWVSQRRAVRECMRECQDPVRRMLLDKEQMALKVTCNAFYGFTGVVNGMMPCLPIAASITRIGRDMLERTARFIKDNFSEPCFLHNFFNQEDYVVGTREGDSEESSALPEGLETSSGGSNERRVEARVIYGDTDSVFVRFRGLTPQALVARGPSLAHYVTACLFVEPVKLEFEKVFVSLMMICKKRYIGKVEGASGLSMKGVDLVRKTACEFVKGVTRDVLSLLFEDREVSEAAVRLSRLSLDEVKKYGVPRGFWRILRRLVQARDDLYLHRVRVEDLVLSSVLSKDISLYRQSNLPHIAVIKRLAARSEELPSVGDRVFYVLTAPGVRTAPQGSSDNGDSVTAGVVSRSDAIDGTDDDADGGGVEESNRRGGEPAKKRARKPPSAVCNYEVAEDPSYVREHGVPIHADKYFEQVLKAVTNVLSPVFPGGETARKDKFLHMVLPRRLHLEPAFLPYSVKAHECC

SMILES | inhibition at 25 µM [%] | % Inhib [%]
CCOc1ccc2ccccc2c1C(=O)Nc1nnc(NCc2cccnc2)s1 [compound 66, 2-ethoxy-N-{5-[(3-pyridinylmethyl)amino]-1,3,4-thiadiazol-2-yl}-1-naphthamide] | 71.9 | –
O=C(/C=C/c1ccccc1Cl)Nc1nnc(NCc2ccc(F)cc2)s1 [compound 67, (E)-3-(2-chlorophenyl)-N-{5-[(4-fluorobenzyl)amino]-1,3,4-thiadiazol-2-yl}-2-propenamide] | 71.7 | –
NS(=O)(=O)c1ccc(CCNc2nnc(NC(=O)c3ccc(I)cc3)s2)cc1 [compound 68, N-(5-{[4-(aminosulfonyl)phenthyl]amino}-1,3,4-thiadiazol-2-yl)-4-iodobenzamide] | 71.1 | –
CCOc1ccc2ccccc2c1C(=O)Nc1nnc(NCCNc2ccccc2)s1 [compound 69, N-{5-[(2-anilinoethyl)amino]-1,3,4-thiadiazol-2-yl}-2-ethoxy-1-naphthamide] | 70.6 | –
CCOc1ccc2ccccc2c1C(=O)Nc1nnc(NCc2ccccn2)s1 [compound 70, 2-ethoxy-N-{5-[(2-pyridinylmethyl)amino]-1,3,4-thiadiazol-2-yl}-1-naphthamide] | 70.4 | –
CCOc1ccc2ccccc2c1C(=O)Nc1nnc(NCc2ccc(F)cc2)s1 [compound 71, 2-ethoxy-N-{5-[(4-fluorobenzyl)amino]-1,3,4-thiadiazol-2-yl}-1-naphthamide] | 69.8 | –
CCCCCCCC/C=C/CCCCCCCC(=O)Nc1nnc(NCc2cccnc2)s1 [compound 72, (E)-N-{5-[(3-pyridinylmethyl)amino]-1,3,4-thiadiazol-2-yl}-9-octadecenamide] | 69.3 | –
O=C(Nc1nnc(NCc2ccc(Cl)c(Cl)c2)s1)c1c(Cl)cccc1Cl [compound 73, 2,6-dichloro-N-{5-[(3,4-dichlorobenzyl)amino]-1,3,4-thiadiazol-2-yl}benzamide] | 69.1 | –
N#Cc1ccc(C(=O)Nc2nnc(NCc3ccc(F)cc3)s2)cc1 [compound 74, 4-cyano-N-{5-[(4-fluorobenzyl)amino]-1,3,4-thiadiazol-2-yl}benzamide] | 69 | –
O=C(/C=C/c1ccccc1Cl)Nc1nnc(NCCCNC2CCCCC2)s1 [compound 75, (E)-3-(2-chlorophenyl)-N-(5-{[3-(cyclohexylamino)propyl]amino}-1,3,4-thiadiazol-2-yl)-2-propenamide] | 68.8 | –
O=C(Nc1nnc(NC2CCCc3ccccc32)s1)c1c(Cl)cccc1Cl (stereo not shown) [compound 76, 2,6-dichloro-N-[5-(1,2,3,4-tetrahydro-1-naphthalenylamino)-1,3,4-thiadiazol-2-yl]benzamide] | 68.5 | –
O=C(/C=C/c1ccccc1)Nc1nnc(NCCc2cccs2)s1 [compound 77, (E)-3-phenyl-N-(5-{[2-(2-thienyl)ethyl]amino}-1,3,4-thiadiazol-2-yl)-2-propenamide] | 68.3 | –
CCOc1ccc2ccccc2c1C(=O)Nc1nnc(NCc2cccs2)s1 [compound 78, 2-ethoxy-N-{5-[(2-thienylmethyl)amino]-1,3,4-thiadiazol-2-yl}-1-naphthamide] | 68.2 | –
CCCCCCCC/C=C/CCCCCCCC(=O)Nc1nnc(NCCC(=O)OC(C)(C)C)s1 [compound 79, tert-butyl-3-({5-[(E)-9-octadecenoylamino]-1,3,4-thiadiazol-2-yl}amino)propanoate] | 68 | –
CCCCCCCCCCCNc1nnc(NC(=O)c2cccc([N+](=O)[O-])c2)s1 [compound 80, 3-nitro-N-[5-(undecylamino)-1,3,4-thiadiazol-2-yl]benzamide] | 67.9 | –
O=C(/C=C/c1ccccc1)Nc1nnc(NCCCCc2ccccc2)s1 [compound 81, (E)-3-phenyl-N-{5-[(4-phenylbutyl)amino]-1,3,4-thiadiazol-2-yl}-2-propenamide] | 67.9 | –
N#Cc1ccc(C(=O)Nc2nnc(NCCc3c[nH]c4ccccc34)s2)cc1 [compound 82, 4-cyano-N-(5-{[2-(1H-indol-3-yl)ethyl]amino}-1,3,4-thiadiazol-2-yl)benzamide] | 67.7 | –

SMILES | inhibition at 25 µM [%] | % Inhib [%]
N#Cc1ccc(C(=O)Nc2nnc(NCC(c3ccccc3)c3ccccc3)s2)cc1 [compound 83, 4-cyano-N-{5-[(2,2-diphenylethyl)amino]-1,3,4-thiadiazol-2-yl}benzamide] | 67.7 | –
O=C(Nc1nnc(NCc2ccncc2)s1)c1c(Cl)cccc1Cl [compound 84, 2,6-dichloro-N-{5-[(4-pyridinylmethyl)amino]-1,3,4-thiadiazol-2-yl}benzamide] | 67.6 | –
O=C(Nc1nnc(NC2CCN(Cc3ccccc3)CC2)s1)c1ccc2c(c1)C(=O)OC2=O [compound 85, N-{5-[(1-benzyl-4-piperidinyl)amino]-1,3,4-thiadiazol-2-yl}-1,3-dioxo-1,3-dihydro-2-benzofuran-5-carboxamide] | 67.3 | –
CCOC(=O)N1CCC(Nc2nnc(NC(=O)c3c(OCC)ccc4ccccc34)s2)CC1 [compound 86, ethyl 4-[(5-{[(2-ethoxy-1-naphthyl)carbonyl]amino}-1,3,4-thiadiazol-2-yl)amino]tetrahydro-1(2H)-pyridinecarboxylate] | 67 | –
CC(C)c1cc(C(C)C)c(C(=O)Nc2nnc(NCCCn3ccnc3)s2)c(C(C)C)c1 [compound 87, N-(5-{[3-(1H-imidazol-1-yl)propyl]amino}-1,3,4-thiadiazol-2-yl)-2,4,6-triisopropylbenzamide] | 67 | –
NS(=O)(=O)c1ccc(CNc2nnc(NC(=O)/C=C/c3ccccc3Cl)s2)cc1 [compound 88, (E)-N-(5-{[4-(aminosulfonyl)benzyl]amino}-1,3,4-thiadiazol-2-yl)-3-(2-chlorophenyl)-2-propenamide] | 66.5 | –
CCOc1ccc2ccccc2c1C(=O)Nc1nnc(NCCc2c[nH]cn2)s1 [compound 89, 2-ethoxy-N-(5-{[2-(1H-imidazol-4-yl)ethyl]amino}-1,3,4-thiadiazol-2-yl)-1-naphthamide] | 66.3 | –
O=C(Nc1nnc(NCCc2c[nH]c3ccccc23)s1)c1ccc(S(=O)(=O)F)cc1 [compound 90, 4-{[(5-{[2-(1H-indol-3-yl)ethyl]amino}-1,3,4-thiadiazol-2-yl)amino]carbonyl}benzenesulfonyl fluoride] | – | 66.1
CCCCCCCC/C=C/CCCCCCCC(=O)Nc1nnc(NC2CCN(C(=O)OCC)CC2)s1 [compound 91, ethyl 4-({5-[(E)-9-octadecenoylamino]-1,3,4-thiadiazol-2-yl}amino)tetrahydro-1(2H)-pyridinecarboxylate] | 66.1 | –
O=C(Nc1nnc(NCCc2cccs2)s1)c1c(Cl)cccc1Cl [compound 92, 2,6-dichloro-N-(5-{[2-(2-thienyl)ethyl]amino}-1,3,4-thiadiazol-2-yl)benzamide] | 66.1 | –
CCOc1ccc2ccccc2c1C(=O)Nc1nnc(NC2CCCc3ccccc32)s1 (stereo not shown) [compound 93, 2-ethoxy-N-[5-(1,2,3,4-tetrahydro-1-naphthaienylamino)-1,3,4-thiadiazol-2-yl]-1-naphthamide] | 66 | –
O=C(/C=C/c1ccccc1)Nc1nnc(NCc2ccncc2)s1 [compound 94, (E)-3-phenyl-N-{5-[(4-pyridinylmethyl)amino]-1,3,4-thiadiazol-2-yl}-2-propenamide] | 65.9 | –
CCOc1ccc2ccccc2c1C(=O)Nc1nnc(NC2CCc3ccccc32)s1 (stereo not shown) [compound 95, N-[5-(2,3-dihydro-1H-inden-1-ylamino)-1,3,4-thiadiazol-2-yl]-2-ethoxy-1-naphthamide] | 65.9 | –
O=C(Nc1nnc(NCc2ccc3c(c2)OCO3)s1)c1c(Cl)cccc1Cl [compound 96] | 65.9 | –
CCOc1ccc2ccccc2c1C(=O)Nc1nnc(NCCc2cccs2)s1 [compound 97, 2-ethoxy-N-(5-{[2-(2-thienyl)ethyl]amino}-1,3,4-thiadiazol-2-yl)-1-naphthamide] | 65.8 | –
O=C(/C=C/c1ccccc1Cl)Nc1nnc(NCCc2c[nH]cn2)s1 [compound 98, (E)-3-(2-chlorophenyl)-N-(5-{[2-(1H-imidazol-4-yl)ethyl]amino}-1,3,4-thiadiazol-2-yl)-2-propenamide] | 65.7 | –
O=C(Nc1nnc(NCCCn2ccnc2)s1)c1c(Cl)cccc1Cl [compound 99, 2,6-dichloro-N-(5-{[3-(1H-imidazol-1-yl)propyl]amino}-1,3,4-thiadiazol-2-yl)benzamide] | 65.6 | –
